Source: ChEMBL document CHEMBL1137094, “Facile incorporation of urea pseudopeptides into protease substrate analogue inhibitors” (Bioorg Med Chem Lett, 2004)
Blank lines part the entries; values can stand above or below the compound they belong to.

What was measured:
[1] = biological target: Human immunodeficiency virus type 1 protease (Human immunodeficiency virus 1) (UniProt Q72874); experiment: Percent inhibition against human immunodeficiency virus protease in fluorescence assay; conditions: concentration not given here
[2] = biological target: T1, Angiotensin-converting enzyme (Sus scrofa, UniProt Q4ACT8); experiment: Inhibitory concentration against porcine kidney angiotensin converting enzyme cleavage of hippuryl-histidyl-leucine (HHL)
T1 sequence (Q4ACT8 whole entry): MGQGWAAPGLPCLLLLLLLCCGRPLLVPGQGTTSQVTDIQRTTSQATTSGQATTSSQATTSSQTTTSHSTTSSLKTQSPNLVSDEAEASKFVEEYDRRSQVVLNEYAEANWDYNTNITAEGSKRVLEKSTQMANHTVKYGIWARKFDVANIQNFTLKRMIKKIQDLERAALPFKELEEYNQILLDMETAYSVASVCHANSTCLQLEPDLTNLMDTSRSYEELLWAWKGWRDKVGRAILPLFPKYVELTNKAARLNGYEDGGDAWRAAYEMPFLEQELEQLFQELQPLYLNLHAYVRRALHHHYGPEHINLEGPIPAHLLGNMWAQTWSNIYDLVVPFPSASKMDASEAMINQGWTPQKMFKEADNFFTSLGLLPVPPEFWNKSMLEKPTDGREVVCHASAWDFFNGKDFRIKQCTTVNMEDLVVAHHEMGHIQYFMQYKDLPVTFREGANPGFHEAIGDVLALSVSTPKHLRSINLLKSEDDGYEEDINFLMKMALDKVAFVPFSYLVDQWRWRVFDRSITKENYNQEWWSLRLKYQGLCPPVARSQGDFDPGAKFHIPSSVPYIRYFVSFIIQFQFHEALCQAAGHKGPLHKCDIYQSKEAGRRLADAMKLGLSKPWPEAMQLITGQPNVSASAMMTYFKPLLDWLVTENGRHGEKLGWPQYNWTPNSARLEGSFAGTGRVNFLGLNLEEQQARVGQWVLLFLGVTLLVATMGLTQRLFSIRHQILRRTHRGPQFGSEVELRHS

[3] = biological target: Human immunodeficiency virus type 1 protease (Human immunodeficiency virus 1, UniProt Q72874); experiment: Inhibitory concentration against human immunodeficiency virus protease in fluorescence assay

inhibition [1]: 35%
SMILES: COC(=O)[C@@H](NC(=O)[C@@H](NC(=O)C(Cc1ccccc1)NC(=O)N[C@H](Cc1ccccc1)NC(=O)[C@H](C)NC(=O)[C@H](C)NC(=O)OCc1ccccc1)C(C)C)C(C)C (stereo partly drawn)

IC50 [2]: 880 µM
SMILES: CC(C)C[C@H](NC(=O)[C@H](Cc1ccccc1)NC(=O)NCNC(=O)CNC(=O)[C@@H](N)Cc1ccc(O)cc1)C(=O)O

SMILES: COC(=O)[C@@H](NC(=O)[C@@H](NC(=O)[C@H](Cc1ccccc1)NC(=O)N[C@H](Cc1ccccc1)NC(=O)[C@H](C)NC(=O)[C@H](C)N)C(C)C)C(C)C
IC50 [3]: 32.4 µM
